Experimental data published in US20240390298A1, “CYCLOHEXYL BETA-HYDROXY ALKYL AMINES AND MEDICAL USES THEREOF” (ATROGI AB, priority 2021, published 2024).
Counter-ions that a name gives are not always drawn.

Key:
[1] = tested on: L6-myotubes; experiment: Glucose uptake in differentiated L6-myotubes (3H-2-deoxyglucose), compared to isoproterenol; format: cell-based; conditions: agonist 1×10^−5 M, 50 nM 3H-2-deoxyglucose; for Emax at 10 µM: read-out: Biological example 1: glucose uptake, activity compared to that of isoproterenol
Description: (§1) L6-myoblasts were grown in Dulbecco's Modified Eagle's Medium (DMEM) containing 1 g/L glucose supplemented with 10% fetal bovine serum, 2 mM L-Glutamine, 50 U/mL penicillin, 50 μg/mL streptomycin and 10 mM HEPES. Cells were plated at 1×10^5 cells per mL in 24-well plates. After reaching 90% confluence the cells were grown in medium containing 2% FBS for 7 days where upon cells differentiated into myotubes.
Differentiated L6-myotubes were serum-starved overnight in medium containing 0.5% fatty-acid free BSA and stimulated with an agonist, with a final concentration of 1×10^−5 M. After 1 h 40 min the cells were washed with warm glucose free medium or PBS twice and another portion of agonist was added to the glucose free medium. After 20 min the cells were exposed to 50 nM ^3H-2-deoxyglucose for 10 min before washed with ice cold glucose free medium or PBS three times and lysed with 0.2 M NaOH, 400 μL/well, for 1 h at 60° C. The cell lysate was mixed with 4 mL scintillation buffer (Emulsifier Safe, Perkin Elmer) and the radioactivity was detected in a β-counter (Tri-Carb 4810TR, Perkin Elmer). The activity for each compound is compared to that of isoproterenol.

[2] = tested on: L6-myotubes; experiment: Measurement of intracellular cAMP levels in differentiated L6 cells (alpha screen cAMP kit), compared to isoproterenol; format: cell-based; conditions: Rattus norvegicus, L6, 0.25 h, agonist 1×10^−5 M, 15 min, read-out: Biological example 2: intracellular cAMP levels, activity compared to that of isoproterenol
Description: as §1
Differentiated cells were serum-starved overnight and stimulated with an agonist, final concentration 1×10^−5 M, for 15 min in stimulation buffer (HBSS supplemented with 1% BSA, 5 mM HEPES and 1 mM IBMX, pH 7.4). The medium was aspirated and 100 μL of 95% EtOH was added to each well of the 24-well plate and cells were kept at −20° C. overnight. The EtOH was allowed to evaporate and 500 μL of lysis buffer (1% BSA, 5 mM HEPES and 0.3% Tween-20, pH 7.4) was added to each well. The plate was kept at −80° C. for 30 min and then at −20° C. until the day of detection when the samples were thawed. Intracellular cAMP levels were detected using an alpha screen cAMP kit (6760635D from Perkin Elmer). The activity for each compound is compared to that of isoproterenol.

## CO[C@H]1CC[C@@H](CCC(C)(C)NC[C@H](O)c2cncc(F)c2)CC1 [Example 24, (R)-1-(5-Fluoropyridin-3-yl)-2-((4-((1s,4R)-4-methoxycyclohexyl)-2-methylbutan-2-yl)amino)ethan-1-ol dihydrochloride]
[1]
  Biological example 1: glucose uptake, activity compared to that of isoproterenol: + + +
[2]
  Emax at 10 µM: < 25%

## O[C@@H](CNC[C@H]1CC[C@@H](OCc2ccccc2)CC1)c1cccc(F)c1 [Example 25, (R)-2-((((1s,4S)-4-(Benzyloxy)cyclohexyl)methyl)amino)-1-(3-fluoro-phenyl)ethan-1-ol]
[1]
  Emax at 10 µM: 25 to 50%
[2]
  Emax at 10 µM: < 25%

## O[C@@H](CNC[C@H]1CC[C@@H](O)CC1)c1cccc(F)c1 [Example 26, (1S,4s)-4-((((R)-2-(3-Fluorophenyl)-2-hydroxyethyl)amino)methyl)-cyclohexan-1-ol]
[1]
  Emax at 10 µM: 25 to 50%
[2]
  Emax at 10 µM: < 25%

## O[C@@H](CNC[C@H]1CC[C@@H](OCc2ccccc2)CC1)c1cncc(F)c1 [Example 27, (R)-2-((((1s,4S)-4-(Benzyloxy)cyclohexyl)methyl)amino)-1-(5-fluoropyridin-3-yl)ethan-1-ol]
[1]
  Biological example 1: glucose uptake, activity compared to that of isoproterenol: + + +
[2]
  Emax at 10 µM: < 25%

## O[C@@H](CNC[C@H]1CC[C@@H](O)CC1)c1cncc(F)c1 [Example 28, (1S,4s)-4-((((R)-2-(5-Fluoropyridin-3-yl)-2-hydroxyethyl)amino)-methyl)cyclohexan-1-ol]
[1]
  Emax at 10 µM: 25 to 50%
[2]
  Emax at 10 µM: < 25%

## O[C@@H](CNC[C@H]1CC[C@H](OCc2ccccc2)CC1)c1cccc(F)c1 [Example 29, (R)-2-((((1r,4R)-4-(Benzyloxy)cyclohexyl)methyl)amino)-1-(3-fluoro-phenyl)ethan-1-ol]
[1]
  Emax at 10 µM: 25 to 50%
[2]
  Emax at 10 µM: < 25%

## O[C@@H](CNC[C@H]1CC[C@H](O)CC1)c1cccc(F)c1 [Example 30, (1R,4r)-4-((((R)-2-(3-Fluorophenyl)-2-hydroxyethyl)amino)methyl)-cyclohexan-1-ol]
[1]
  Emax at 10 µM: 25 to 50%
[2]
  Emax at 10 µM: < 25%

## O[C@@H](CNC[C@H]1CC[C@H](OCc2ccccc2)CC1)c1cncc(F)c1 [Example 31, (R)-2-((((1r,4R)-4-(Benzyloxy)cyclohexyl)methyl)amino)-1-(5-fluoropyridin-3-yl)ethan-1-ol]
[1]
  Emax at 10 µM: 25 to 50%
[2]
  Emax at 10 µM: < 25%

## O[C@@H](CNC[C@H]1CC[C@H](O)CC1)c1cncc(F)c1 [Example 32, (1R,4r)-4-((((R)-2-(5-Fluoropyridin-3-yl)-2-hydroxyethyl)amino)-methyl)cyclohexan-1-ol]
[1]
  Emax at 10 µM: < 25%
[2]
  Emax at 10 µM: < 25%

## CC(C)(NC[C@H](O)c1cccc(F)c1)[C@H]1CC[C@@H](OCc2ccccc2)CC1 [Example 33, (R)-2-((2-((1s,4S)-4-(Benzyloxy)cyclohexyl)propan-2-yl)amino)-1-(3-fluorophenyl)ethan-1-ol]
[1]
  Biological example 1: glucose uptake, activity compared to that of isoproterenol: + +
[2]
  Emax at 10 µM: < 25%

## CC(C)(NC[C@H](O)c1cccc(F)c1)[C@H]1CC[C@@H](O)CC1 [Example 34, (1S,4s)-4-(2-(((R)-2-(3-Fluorophenyl)-2-hydroxyethyl)amino)propan-2-yl)cyclohexan-1-ol]
[1]
  Biological example 1: glucose uptake, activity compared to that of isoproterenol: + +
[2]
  Emax at 10 µM: < 25%

## CC(C)(NC[C@H](O)c1cncc(F)c1)[C@H]1CC[C@@H](OCc2ccccc2)CC1 [Example 35, (R)-2-((2-((1s,4S)-4-(Benzyloxy)cyclohexyl)propan-2-yl)amino)-1-(5-fluoropyridin-3-yl)ethan-1-ol]
[1]
  Biological example 1: glucose uptake, activity compared to that of isoproterenol: + +
[2]
  Emax at 10 µM: < 25%

## CC(C)(NC[C@H](O)c1cncc(F)c1)[C@H]1CC[C@@H](O)CC1 [Example 36, (1S,4s)-4-(2-(((R)-2-(5-Fluoropyridin-3-yl)-2-hydroxyethyl)amino)propan-2-yl)cyclohexan-1-ol]
[1]
  Emax at 10 µM: 25 to 50%
[2]
  Emax at 10 µM: < 25%

## CC(C)(NC[C@H](O)c1cccc(F)c1)[C@H]1CC[C@H](OCc2ccccc2)CC1 [Example 37, (R)-2-((2-((1r,4R)-4-(Benzyloxy)cyclohexyl)propan-2-yl)amino)-1-(3-fluoro-phenyl)ethan-1-ol]
[1]
  Biological example 1: glucose uptake, activity compared to that of isoproterenol: + +
[2]
  Emax at 10 µM: < 25%

## CC(C)(NC[C@H](O)c1cccc(F)c1)[C@H]1CC[C@H](O)CC1 [Example 38, (1R,4r)-4-(2-(((R)-2-(3-Fluorophenyl)-2-hydroxyethyl)amino)propan-2-yl)cyclohexan-1-ol]
[1]
  Biological example 1: glucose uptake, activity compared to that of isoproterenol: + +
[2]
  Emax at 10 µM: < 25%

## CC(C)(NC[C@H](O)c1cncc(F)c1)[C@H]1CC[C@H](OCc2ccccc2)CC1 [Example 39, (R)-2-((2-((1r,4R)-4-(Benzyloxy)cyclohexyl)propan-2-yl)amino)-1-(5-fluoropyridin-3-yl)ethan-1-ol]
[1]
  Biological example 1: glucose uptake, activity compared to that of isoproterenol: + +
[2]
  Emax at 10 µM: < 25%

## CC(C)(NC[C@H](O)c1cncc(F)c1)[C@H]1CC[C@H](O)CC1 [Example 40, (1R,4r)-4-(2-(((R)-2-(5-Fluoropyridin-3-yl)-2-hydroxyethyl)amino)propan-2-yl)cyclohexan-1-ol]
[1]
  Biological example 1: glucose uptake, activity compared to that of isoproterenol: + +
[2]
  Emax at 10 µM: < 25%

## O[C@@H](CNCC[C@H]1CC[C@@H](OCc2ccccc2)CC1)c1cccc(F)c1 [Example 41, (R)-2-((2-((1s,4S)-4-(Benzyloxy)cyclohexyl)ethyl)amino)-1-(3-fluoro-phenyl)ethan-1-ol]
[1]
  Biological example 1: glucose uptake, activity compared to that of isoproterenol: + +
[2]
  Emax at 10 µM: < 25%

## O[C@@H](CNCC[C@H]1CC[C@@H](O)CC1)c1cccc(F)c1 [Example 42, (1S,4s)-4-(2-(((R)-2-(3-Fluorophenyl)-2-hydroxyethyl)amino)ethyl)-cyclohexan-1-ol]
[1]
  Biological example 1: glucose uptake, activity compared to that of isoproterenol: + +
[2]
  Emax at 10 µM: < 25%

## O[C@@H](CNCC[C@H]1CC[C@@H](O)CC1)c1cncc(F)c1 [Example 44, (1S,4s)-4-(2-(((R)-2-(5-Fluoropyridin-3-yl)-2-hydroxyethyl)amino)-ethyl)cyclohexan-1-ol]
[1]
  Emax at 10 µM: 25 to 50%
[2]
  Emax at 10 µM: < 25%

## O[C@@H](CNCC[C@H]1CC[C@H](OCc2ccccc2)CC1)c1cccc(F)c1 [Example 45, (R)-2-((2-((1r,4R)-4-(Benzyloxy)cyclohexyl)ethyl)amino)-1-(3-fluoro-phenyl)ethan-1-ol]
[1]
  Emax at 10 µM: 25 to 50%
[2]
  Emax at 10 µM: < 25%

## O[C@@H](CNCC[C@H]1CC[C@H](O)CC1)c1cccc(F)c1 [Example 46, (1R,4r)-4-(2-(((R)-2-(3-Fluorophenyl)-2-hydroxyethyl)amino)ethyl)-cyclohexan-1-ol]
[1]
  Emax at 10 µM: 25 to 50%
[2]
  Emax at 10 µM: < 25%

## O[C@@H](CNCC[C@H]1CC[C@H](OCc2ccccc2)CC1)c1cncc(F)c1 [Example 47, (R)-2-((2-((1r,4R)-4-(Benzyloxy)cyclohexyl)ethyl)amino)-1-(5-fluoropyridin-3-yl)ethan-1-ol]
[1]
  Emax at 10 µM: < 25%
[2]
  Emax at 10 µM: < 25%

## O[C@@H](CNCC[C@H]1CC[C@H](O)CC1)c1cncc(F)c1 [Example 48, (1R,4r)-4-(2-(((R)-2-(5-Fluoropyridin-3-yl)-2-hydroxyethyl)amino)-ethyl)cyclohexan-1-ol]
[1]
  Emax at 10 µM: 25 to 50%
[2]
  Emax at 10 µM: < 25%

## CC(C)(C[C@H]1CC[C@@H](O)CC1)NC[C@H](O)c1cccc(F)c1.Cl [Example 49, (1S,4s)-4-(2-(((R)-2-(3-Fluorophenyl)-2-hydroxyethyl)amino)-2-methylpropyl)cyclohexan-1-ol hydrochloride]
[1]
  Biological example 1: glucose uptake, activity compared to that of isoproterenol: + +
[2]
  Emax at 10 µM: < 25%

## CC(C)(C[C@H]1CC[C@@H](O)CC1)NC[C@H](O)c1cncc(F)c1.Cl [Example 50, (1S,4s)-4-(2-(((R)-2-(5-Fluoropyridin-3-yl)-2-hydroxyethyl)amino)-2-methylpropyl)cyclohexan-1-ol hydrochloride]
[1]
  Biological example 1: glucose uptake, activity compared to that of isoproterenol: + + +
[2]
  Emax at 10 µM: < 25%

## CC(C)(C[C@H]1CC[C@H](O)CC1)NC[C@H](O)c1cccc(F)c1.Cl [Example 51, (1R,4r)-4-(2-(((R)-2-(3-Fluorophenyl)-2-hydroxyethyl)amino)-2-methylpropyl)cyclohexan-1-ol hydrochloride]
[1]
  Biological example 1: glucose uptake, activity compared to that of isoproterenol: + + +
[2]
  Emax at 10 µM: < 25%

## CC(C)(C[C@H]1CC[C@H](O)CC1)NC[C@H](O)c1cncc(F)c1 [Example 52, (1R,4r)-4-(2-(((R)-2-(5-Fluoropyridin-3-yl)-2-hydroxyethyl)amino)-2-methylpropyl)cyclohexan-1-ol]
[1]
  Biological example 1: glucose uptake, activity compared to that of isoproterenol: + + +
[2]
  Emax at 10 µM: < 25%
